{
  "source": "patent US20210222168A1",
  "about": "“METHODS FOR REACTIVATING GENES ON THE INACTIVE X CHROMOSOME” (THE GENERAL HOSPITAL CORPORATION, priority 2017, published 2021)",
  "key": {"[1]": {"conditions": "cited from earlier work"}, "[2]": {"assay": "Aza three pulse treatment, long-term health, lifespan and body weight", "description": "Aza was administered to the Xist2lox, Nestin-Cre F2 generation, by IP injection at 5 weeks old. Three injections 100 ul per 10 g of 0.033 mg/ml in sterile saline (or just sterile saline as control) were given over the course of a week (each injection separated by 2 days). Both Xist2lox/2lox and Xist Δ/Δ were injected and were randomly assigned to the treatment group. No specific randomization protocol was followed. RNA from the brain and liver were harvested (as described before) at 7 weeks of age (2 weeks after the first injection)."}, "[3]": {"test_system": "X-linked gene expression relative to autosomal expression", "assay": "Aza three pulse treatment, transcriptomic analysis of brain and liver", "assay_type": "in vivo, mouse", "description": "All libraries were sequenced with Illumina HiSeq, generating 28-54 millions paired-end 50 nucleotide reads per sample. RNA-seq reads were aligned allele-specifically to 129S1/SvJm (mus) and CAST/Eih (cas) genome using TopHat2 (Kim D, et al. (2013) TopHat2: Accurate alignment of transcriptomes in the presence of insertions, deletions and gene fusions. Genome Biol 14:R36). After removal of PCR duplicates, all unique reads mapped to the exons of each gene were quantified by Homer (Heinz S, et al. (2010) Simple combinations of lineage-determining transcription factors prime cis-regulatory elements required for macrophage and B cell identities. Mol Cell 38:576-589). […] To compare the fold change of autosomal and X-linked genes, only genes with FPKM≥1 were considered (Yang L, Kirby J E, Sunwoo H, Lee J T (2016) Female mice lacking Xist RNA show partial dosage compensation and survive to term. Genes Dev 30:1747-1760). […] For allele-specific analysis, we defined % mus as the percentage of mus-specific exonic reads in all allele-specific (mus-specific+cas-specific) exonic reads of each transcript. For classification of X-linked genes, we defined expressed genes as genes having non-zero FPKM in all samples. Allele-assessable genes were defined as active genes that have more than 12 allele-specific reads in all samples (Pinter S F and Colognori D (2015) Allelic imbalance is a prevalent and tissue-specific feature of the mouse transcriptome. Genetics 200:537-549). It has been described that a small fraction of genes overlap with incorrectly annotated SNPs and produce unexpected allelic skewing (Pinter S F and Colognori D (2015) Allelic imbalance is a prevalent and tissue-specific feature of the mouse transcriptome. Genetics 200:537-549; Calabrese J M et al. (2012) Site-specific silencing of regulatory elements as a mechanism of X inactivation. Cell 151:951-963). These genes were identified by analyzing a published RNA-seq dataset of tail-tip fibroblasts (TTF) from pure Mus castaneous background. […]"}, "Xi-Mecp2-Luc MEF cells [4]": {"test_system": "Xi-Mecp2-Luc MEF cells", "conditions": "stated in parentheses only; target and source not given; cited from earlier work"}, "[5]": {"test_system": "Mecp2:Luciferase knock-in reporter on the Xi", "assay": "Luciferase assay in Xi-Mecp2-Luc MEFs", "assay_type": "cell-based, mouse", "conditions": "for Xi-Mecp2 upregulation / reactivation in combination with the Xist ASO: 20 nM Xist ASO + small molecule inhibitor (EPZ6438 1 uM, VX680 1 uM, Aza 0.5 uM); for upregulation of MECP2 by other Xist gapmers: 20 nM ASO + 0.5 μM Aza (FIG. 7B-D)", "description": "(§1) Mecp2-Luc fibroblast cell lines were a generous gift from Dr. Bedalov. The clonal hybrid (cast/mus) cell line (EY.T4) was previously developed in the lab (Yildirim E et al. (2011) X-chromosome hyperactivation in mammals via nonlinear relationships between chromatin states and transcription. Nat Struct Mol Biol 19:56-61). Passage number was kept below 25, no further verification of cell line identity was performed. They were maintained in DMEM-glutamax (Gibco), supplemented with fetal bovine serum (FBS, 10%), non-essential amino acids (1×, Gibco), HEPES buffer (25 mM, Gibco), penicillin/streptomycin (1×, Gibco) and 2-Mercaptoethanol (Sigma). Transfection was performed with 20 nM ASO assisted by Lipofectamine LTX with Plus reagent (Thermo Fisher).\nXa-Mecp2-Luc clone cell line was used in parallel for providing a scaling magnitude for normalizing Xi-driven luciferase signals, Cells were grown in a 12 well plate, trypsinized, counted, washed with PBS and dispensed in 20 ul of 1× cell culture lysis reagent (Promega). The mixture was vortexed and incubated for 5 min and then transferred to a zebra 96 well plate. The plate was read using a Perkin Elmer MicroBeta2 LumiJET that automatically adds 100 μl of Luciferase Assay Reagent (Promega) 2 sec before measuring the produced light for 10 sec. The corrected counts per second where divided by the number of cells for generating a luciferase-reactivation score per cell. For the initiating screen ASOs were used at 20 nM (transfected with lipofectamine) in combination with 0.5 uM Aza for 3 days. The reverse screen used 20 nM Xist ASO (transfected with lipofectamine) in combination with the small molecule inhibitors at different concentrations (see Table S-II) for 3 days.\nWe asked whether an ASO could also be developed for Xi-reactivation. We screened a small ASO library against various targets of potential interest, including Xist RNA and an antisense transcript to Mecp2 (Mecp2-as) (FIG. 1A, FIG. 6, Table S-I). In designing the ASOs, we chose phosporothioate backbone and locked nucleic acid (LNA™) chemistry (Wahlestedt C et al. Potent and nontoxic antisense oligonucleotides containing locked nucleic acids. Proc Natl Acad Sci USA. 2000; 97:5633-5638) for its in vivo and in vitro stability, and increased affinity and selectivity for RNA targets. All were designed as gapmers, with unmodified deoxyribonucleosides in the center flanked by 5′ and 3′ terminal locked nucleosides, to direct RNAse-H-mediated cleavage of the target transcript. […] The luciferase reporter provides a highly sensitive enzymatic detection method with a large dynamic range. […] Epigenetics Chromatin. […] Science. 2015; 349: aab2276-12), we examined the efficacy of each ASO in the presence of 0.5 uM decitabine (“Aza”; 5-aza-2′-deoxycytidine) for three days."}, "Xi-Mecp2-Luc MEF cells [6]": {"test_system": "Xi-Mecp2-Luc MEF cells", "assay_type": "cell-based", "description": "as §1\nImaging was done with a Nikon Eclipse TE2000-E equipped with a HamamatsuCCD camera. Image analysis was done with OpenLAB software (Agilent)."}},
  "note": "Entries after “also recorded” stand apart in the source; their conditions may differ.",
  "data": [
    {"compound": "Nc1ncn([C@H]2C[C@H](O)[C@@H](CO)O2)c(=O)n1", "note": "[Aza, 5-aza-2′-deoxycytidine]", "values": [
      {"measurement": "blood-brain-barrier crossing", "setting": "[1]; cited: Chabot et al., rabbits and dogs", "result": "can cross the blood-brain-barrier"},
      {"measurement": "half-life (t1/2) in plasma", "setting": "[1]; plasma", "result": "< 1", "unit": "h"},
      {"measurement": "survival", "setting": "[2]; after short-term Aza pulse treatment", "result": "all mice advanced to 1-2 year of age"},
      {"measurement": "body weight, Aza versus saline treatment groups", "setting": "[2]; mouse, in vivo", "result": "did not introduce significant differences"},
      {"measurement": "health and lifespan", "setting": "[2]; mouse, in vivo", "result": "no measurable differences in health and lifespan"},
      {"measurement": "X- and autosomal gene expression in liver", "setting": "[3]; three IP Aza pulses over one week at 5 weeks of age, harvested two weeks later, liver (Xist not deleted)", "result": "remained balanced"},
      {"measurement": "X-linked gene expression relative to autosomal expression in XistΔ/Δ brain", "setting": "[3]; three IP Aza pulses over one week combined with Xist deletion, brain two weeks later", "result": "highly significant positive changes in X-linked gene expression relative to autosomal expression; also recorded: X-upregulation evident in the brain two weeks later; also recorded: sufficient to induce Xi reactivation after two weeks in the brain"},
      {"measurement": "X-to-autosomal gene expression in Xist2lox/2lox (wild-type) brain", "setting": "[3]; three IP Aza pulses over one week, brain two weeks later", "result": "did not result in X-to-autosomal gene imbalance"},
      {"measurement": "IC50", "setting": "Xi-Mecp2-Luc MEF cells [4]", "result": 500, "unit": "nM"},
      {"measurement": "Mecp2:luciferase upregulation, single treatments compared with the combination", "setting": "[5]; 5 days", "result": "remained significantly lower"},
      {"measurement": "cell death at higher Aza concentrations", "setting": "Xi-Mecp2-Luc MEF cells [6]; 1.0, 2.5 uM Aza, 3-day treatment", "result": "increased cell death"},
      {"measurement": "tolerable Aza concentrations in cell culture", "setting": "Xi-Mecp2-Luc MEF cells [6]; FIG. 2C", "result": 0.5, "unit": "µM"}
    ]},
    {"compound": "CCN(c1cc(-c2ccc(CN3CCOCC3)cc2)cc(C(=O)NCc2c(C)cc(C)[nH]c2=O)c1C)C1CCOCC1", "note": "[EPZ6438, N-((4,6-dimethyl-2-oxo-1,2-dihydropyridin-3-yl)methyl)-5-(ethyl(tetrahyd-ro-2H-pyran-4-yl)amino)-4-methyl-4′-(morpholinomethyl)-[1,1′-biphenyl]-3-carboxamide]", "values": [
      {"measurement": "Xi-Mecp2 upregulation / reactivation in combination with the Xist ASO", "setting": "[5]; 3 days", "result": "varying degrees of upregulation; also recorded: larger degree of reactivation than previously seen with any other compound"}
    ]},
    {"compound": "Cc1cc(Nc2cc(N3CCN(C)CC3)nc(Sc3ccc(NC(=O)C4CC4)cc3)n2)n[nH]1", "note": "[VX680]", "values": [
      {"measurement": "Xi-Mecp2 upregulation / reactivation in combination with the Xist ASO", "setting": "[5]; 3 days", "result": "varying degrees of upregulation; also recorded: larger degree of reactivation than previously seen with any other compound"}
    ]},
    {"compound": "Scr ASO: negative control ASO, scrambled sequence; AACACGTCTATACGC, SEQ ID NO: 1 (all phosphorothioate, sugars by position and methylation of C not given here; LNA gapmer with DNA center and LNA wings)", "values": [
      {"measurement": "luminescent counts per second (LCPS) / Mecp2:luciferase reactivation, single treatment", "setting": "[5]; 3 days, ASO 20 nM or Aza 0.5 uM alone", "result": "neither the control Scr ASO (20 nM) nor Xist ASO (20 nM gapmer 1) resulted in measurable luminescent counts per second"}
    ]},
    {"compound": "Xist ASO 2: LNA gapmer ASO targeting Xist exon 1; AGTAGCTCGGTGGAT, SEQ ID NO: 3 (all phosphorothioate, sugars by position and methylation of C not given here; LNA gapmer with DNA center and LNA wings)", "values": [
      {"measurement": "upregulation of MECP2 by other Xist gapmers", "setting": "[5]", "result": "found to also upregulate MECP2"}
    ]},
    {"compound": "Xist ASO 3: LNA gapmer ASO targeting Xist exon 1; TGAGTCTTGAGGAGAA, SEQ ID NO: 4 (all phosphorothioate, sugars by position and methylation of C not given here; LNA gapmer with DNA center and LNA wings)", "values": [
      {"measurement": "upregulation of MECP2 by other Xist gapmers", "setting": "[5]", "result": "found to also upregulate MECP2"}
    ]}
  ]
}
